Data published in article PMC7226045, “Ensartinib (X-396) Effectively Modulates Pharmacokinetic Resistance Mediated by ABCB1 and ABCG2 Drug Efflux Transporters and CYP3A4 Biotransformation Enzyme” (Cancers, 2020).

Columns and labels:
[1] = test system: HepG2-CYP3A4 cells; test: Docetaxel combination assay (MTT), HepG2-CYP3A4; assay type: cell-based, human; conditions: 1 µM docetaxel
Experimental: (§1) MTT proliferation assay was performed as described previously.
Cell viability was measured after a 48 h incubation using the MTT method as described above. […] Sensitization effects of < 0%, 0%, and >0% indicate antagonism, additivity, and synergism, respectively.

[2] = molecular target: T1, ABCG2 (Homo sapiens, UniProt Q9UNQ0); test: hoechst 33342 accumulation assay in MDCKII-ABCG2 cells; assay type: cell-based; conditions: read-out: IC50, inhibition of ABCG2 (hoechst 33342 accumulation)
T1 construct: expressed in transfected cells; host or cells: MDCKII-ABCG2 (from Dr. Alfred Schinkel, The Netherlands Cancer Institute)
T1 sequence (Q9UNQ0 1-655): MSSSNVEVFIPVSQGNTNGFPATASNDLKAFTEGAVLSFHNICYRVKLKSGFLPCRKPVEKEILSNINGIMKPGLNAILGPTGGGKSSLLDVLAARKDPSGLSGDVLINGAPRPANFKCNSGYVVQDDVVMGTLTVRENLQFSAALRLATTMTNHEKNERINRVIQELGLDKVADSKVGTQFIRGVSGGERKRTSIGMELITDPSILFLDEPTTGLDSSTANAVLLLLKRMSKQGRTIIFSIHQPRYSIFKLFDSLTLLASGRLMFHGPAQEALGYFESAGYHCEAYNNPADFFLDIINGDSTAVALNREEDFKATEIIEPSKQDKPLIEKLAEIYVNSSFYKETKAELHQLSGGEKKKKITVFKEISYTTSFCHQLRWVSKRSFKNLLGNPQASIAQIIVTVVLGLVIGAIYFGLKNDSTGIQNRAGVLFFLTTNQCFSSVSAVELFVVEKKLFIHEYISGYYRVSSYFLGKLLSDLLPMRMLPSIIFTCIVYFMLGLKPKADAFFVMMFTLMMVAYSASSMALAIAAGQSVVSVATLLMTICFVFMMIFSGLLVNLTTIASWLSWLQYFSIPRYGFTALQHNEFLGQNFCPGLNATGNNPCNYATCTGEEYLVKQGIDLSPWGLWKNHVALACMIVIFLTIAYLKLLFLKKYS
Experimental: Cellular accumulation assay with hoechst 33342 and calcein AM was performed as described previously. Briefly, MDCKII-par, MDCKII-ABCB1, MDCKII-ABCG2, and MDCKII-ABCC1 cells were seeded at densities of 5.0 × 10^4, 5.0 × 10^4, 5.5 × 10^4, and 6.0 × 10^4 cells/well, respectively, on a transparent 96-well plate and grown to full confluence for 24 h under standard conditions. The cells were then washed twice with 1 × PBS, after which was added either a dilution of ensartinib in Opti-MEM (1, 5, 10, 25, or 50 µM) or a specific inhibitor to act as a positive control (1 µM LY335979, 1 µM Ko143, or 25 µM MK-571 for ABCB1, ABCG2, or ABCC1, respectively). Cells were pre-incubated for 10 min, then 8 µM hoechst 33342 (a model substrate for ABCB1 and ABCG2) or 2 µM calcein AM (ABCC1 substrate) diluted in Opti-MEM was quickly added to all wells other than those containing blank samples. The intracellular levels of the substrates were then determined at 1 min intervals for 30 min using a microplate reader (Infinite M200 Pro, Tecan, Männedorf, Switzerland). Fluorescence was monitored in bottom mode using excitation/emission wavelengths of 350/465 and 485/535 nm for hoechst 33342 and calcein AM, respectively.

[3] = test system: MDCKII-parent cells; test: MTT proliferation / drug combination assay, MDCKII-parent; assay type: cell-based, canine
Experimental: as §1

[4] = molecular target: T2, CYP2B6 (Homo sapiens, UniProt P20813); test: Vivid CYP screening kit, recombinant CYP2B6; assay type: biochemical; conditions: recombinant enzyme
T2 construct: purchased Thermo Fisher Scientific; host or cells: insect microsomal fractions
T2 sequence (P20813 whole entry): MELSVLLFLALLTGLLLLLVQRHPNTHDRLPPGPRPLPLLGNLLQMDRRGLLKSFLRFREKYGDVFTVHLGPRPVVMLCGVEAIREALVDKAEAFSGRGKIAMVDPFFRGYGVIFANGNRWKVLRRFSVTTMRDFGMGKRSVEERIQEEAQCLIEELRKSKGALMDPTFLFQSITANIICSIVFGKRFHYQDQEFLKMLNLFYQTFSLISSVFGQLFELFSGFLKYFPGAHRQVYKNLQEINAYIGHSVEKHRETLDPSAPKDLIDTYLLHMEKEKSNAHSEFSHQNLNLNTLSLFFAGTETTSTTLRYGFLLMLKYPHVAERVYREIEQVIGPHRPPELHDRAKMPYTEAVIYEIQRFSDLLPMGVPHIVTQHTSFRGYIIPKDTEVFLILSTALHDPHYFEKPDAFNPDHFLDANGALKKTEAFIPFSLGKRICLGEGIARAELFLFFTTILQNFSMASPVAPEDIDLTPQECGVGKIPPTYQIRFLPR
Experimental: CYP inhibitory assay was performed as described previously. Experiments were performed with commercial Vivid CYP screening kits containing insect microsomal fractions enriched with a specific human CYP isoform, human CYP reductase, and in some cases, human cytochrome b5. The potential inhibitory activity of ensartinib toward CYP1A2, CYP2B6, CYP2C8, CYP2C9, CYP2C19, CYP2D6, CYP3A4, and CYP3A5 (i.e., all CYP isoforms that drug regulatory authorities recommend for testing of inhibition by new molecular entities) was then examined. Experiments were performed using a kinetic mode in black 96-well plates according to the manufacturer´s instructions. Briefly, 5-point serial dilutions of ensartinib or the model inhibitor recommended by the manufacturer in buffer were transferred into the wells, then a master mix consisting of a CYP isoenzyme with an NADPH regeneration system in buffer was added. After a 10 min pre-incubation, the reaction was initiated by adding a mixture of NADP^+ and the appropriate Vivid substrate, after which fluorescence was measured at 1 min intervals for 60 min using an Infinite M200 Pro microplate reader (Tecan, Männedorf, Switzerland). The enzyme concentration and incubation interval used for data evaluation (15 min) placed the systems within the linear regions of the appropriate reaction velocity curves. […]

C[C@@H]1CN(C(=O)c2ccc(NC(=O)c3cc(O[C@H](C)c4c(Cl)ccc(F)c4Cl)c(N)nn3)cc2)C[C@H](C)N1 [ensartinib, Ensartinib]
docetaxel sensitization in CYP3A4-overexpressing cells ([1]; 25 µM ensartinib (but not 15 µM), 48 h MTT): comparable to that induced by ketoconazole | sensitization effect of combination with docetaxel ([1]; HepG2-CYP3A4, <0% antagonism, =0% additivity, >0% synergism): synergistic | IC50 [2]: 9.13 µM | IC50 ([3]; Canis lupus familiaris, MDCKII-parent, 48 h, MTT, read-out: IC50, sensitivity to ensartinib): 21.8 µM | combination effect (Chou-Talalay combination index) ([3]; MDCKII parental, 10 µM ensartinib with daunorubicin or mitoxantrone, whole FA range): antagonistic or additive | inhibitory effect on CYP2B6 (in words) [4]: no appreciable inhibitory effect | IC50 ([4]; 15 min incubation, absolute IC50, read-out: CYP2B6 inhibition IC50): > 50 µM
